In general, TGI refers to the concentration giving total growth inhibition. Higher therefore signals lower sensitivity of the cells. As usually defined, the GI50 is the concentration giving 50% growth inhibition.

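How tested: cells in 96-well plates exposed to compound for 48 hours at five concentrations. Here, GI50 denotes the concentration required for 50% inhibition of growth. At the TGI there is no net growth.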

What all share (assay): DTP human tumour cell line panel, 48 h
Assay [1] has as its system A498 renal.
Assay [2] has as its system A549 NSCLC.
The subject of assay [3] is ACHN renal.
In assay [4] the test system is CAKI-1 renal.
The subject of assay [5] is HOP-92 NSCLC.
For assay [6], the system named is IGROV1 ovarian.
The subject of assay [7] is K-562 leukemia.
Assay [8] has as its system MALME-3M melanoma.
Assay [9] concerns NCI-H522 lung.
The subject of assay [10] is SK-MEL-2 melanoma.

As to `Nc1nncs1`, the TGI was over 5000 µM in [1]; 4980 µM in assay [2]; over 5000 µM in assay [3]; over 4630 µM in assay [4]; 4660 µM in [5]; over 4680 µM in [6]. Also, the TGI in assay [7] is over 5000 µM; in assay [8], over 5000 µM; in [9], 4690 µM; in assay [10], over 5000 µM.

For `O=C(O)C(Br)Cc1ccc2c(c1)OCO2` (stereo not given), the TGI in assay [1], in assay [2], in assay [3], in [4], in assay [5] and in [6] was over 100 µM throughout. For the same molecule, the TGI in assay [7], in [8], in [9] and in [10] was over 100 µM each time.

`COc1cc2c3c(n(C4CCNCC4)c(=O)c2cc1OC)-c1cc2c(cc1C3=O)OCO2`: the GI50 in [1] was 0.619 µM; in [4], 0.295 µM; in [5], 2.45 µM; in [9], 0.296 µM; in assay [10] it was 20.1 µM. The TGI in assay [1] was 3.32 µM; in [4], 1.6 µM; in [5], 28.3 µM; in assay [9], 2.99 µM; in assay [10] it was over 100 µM.

In the case of `COc1ccc(/C=C/[N+](=O)[O-])cc1`, the TGI in assay [1] was 17.3 µM; in [3] it was 32.4 µM; in assay [6], 11.3 µM; in assay [7] it was over 100 µM; in assay [8], 35.3 µM; in assay [9] it was 43.4 µM. Also, in assay [10], the TGI amounted to 52.7 µM.

`NC(=O)c1cc(C2OC(CO)C(O)C2O)nn1-c1ccc([N+](=O)[O-])cc1` (stereo not given): the TGI in assay [1], in assay [2], in assay [3], in assay [4], in [5] and in [6] was over 100 µM in each case. For the same molecule, the TGI in assay [7], in [8] and in assay [10] was over 100 µM in each case.

As for `CC1(C)N=C(N)N=C(N)N1c1cccc(OCc2cccc([N+](=O)[O-])c2)c1`, the TGI in assay [1], in [2], in [3], in assay [4], in assay [5] and in assay [6] was over 100 µM throughout. For the same molecule, the TGI in assay [7], in [8], in [9] and in assay [10] was over 100 µM throughout.

As for `O=C(O)CNCc1c2ccccc2[n+]([O-])c2ccccc12`, the TGI is over 100 µM in [1]; over 100 µM in [2]; over 100 µM in assay [3]; over 100 µM in assay [4]; 78.1 µM in assay [5]; over 100 µM in assay [6]. The TGI in assay [7], in [8], in assay [9] and in assay [10] was over 100 µM throughout.

Turning to `S=C1NN=C2C(=C3CCCC4C5CCCCC5N2C34)N1` (stereo not given), the TGI in assay [2], in [3], in assay [4], in assay [5], in assay [6] and in [7] was over 100 µM in each case. The TGI in [8] and in [9] was over 100 µM in each case.

As to `O=C1c2ccccc2C(=O)c2c(O)c(O)cc(O)c21`, the TGI in assay [1] was over 100 µM; in [2] it was over 100 µM; in assay [3] it was over 100 µM; in assay [4] it was over 100 µM; in [5], 76.2 µM; in assay [6] it was over 100 µM. Moreover, the TGI in assay [7] was over 100 µM; in [8] it was over 100 µM; in [9], 96.1 µM; in [10], 69.1 µM.

For the molecule `O=C(O)Cc1[nH]cnc1C(=O)O`, the TGI in assay [1], in [2], in [3], in assay [4], in assay [5] and in [6] was over 100 µM throughout. Also, the TGI in assay [7], in assay [8], in assay [9] and in [10] was over 100 µM in each case.

As for `COC1/C=C\OC2(C)Oc3c(C)c(O)c4c(O)c(c(CN(C)C)c(O)c4c3C2=O)NC(=O)/C(C)=C\C=C/C(C)C(O)C(C)C(O)C(C)C(OC(C)=O)C1C` (stereo not given), the TGI in assay [1], in assay [2], in assay [3], in assay [4], in assay [5] and in assay [6] was over 100 µM in each case. The TGI in assay [7] turned out to be 85.2 µM; in assay [8], 39.3 µM; in [9] it was 32.1 µM; in assay [10], 42.5 µM.

In the case of `COc1ccc(/C(Cl)=C(\C=O)c2ccc(Cl)c(Cl)c2)cc1OC`, the TGI in assay [1] was 30.4 µM; in assay [3], 18.2 µM; in assay [4], 18.8 µM; in [5], 13.8 µM; in [7] it was over 100 µM; in assay [8] it was 42.5 µM. The TGI in assay [9] was 6.53 µM; in [10] it was 15 µM.

Take `CCCCCCCCCCCCCCCCOCCCOP(=O)(O)C1CCCN(O)C1=O` (stereo not given): the GI50 in assay [1] is 1.73 µM; in assay [2], 3.56 µM; in [3], 3.2 µM; in assay [4] it was 2.09 µM; in assay [5], 6.08 µM; in assay [6], 0.609 µM. Also, the GI50 in assay [7] is 4.25 µM; in assay [8] it was 2.64 µM; in assay [9] it was 2.76 µM; in assay [10], 5.95 µM. The TGI stood at 12.4 µM in assay [1]; 14.4 µM in [2]; 14.2 µM in [3]; 6.18 µM in [4]; 40 µM in [5]; 4.77 µM in assay [6]. The TGI in assay [7] was 42.3 µM; in [8], 10.8 µM; in assay [9], 14.8 µM; in assay [10], 24.6 µM.

`COC(=O)c1nc2c3c(cccc3c1C(=O)OC)Nc1ccccc1-2`: the TGI in assay [1] is over 100 µM; in assay [2], over 100 µM; in [3], over 100 µM; in assay [4] it was over 100 µM; in [5] it was 50.2 µM; in assay [6], over 100 µM. The TGI in assay [7] was over 100 µM; in [8] it was 93 µM; in assay [9], 41.5 µM; in [10], 71.8 µM.

For `COc1cc2c3c(c4cc(OC)c(OC)cc4c2cc1OC)[C@H](O)[C@@H]1CCCN1C3`, the TGI is 2.56 µM in [2]; 0.3 µM in assay [3]; 2.3 µM in [4]; 2.32 µM in [5]; over 100 µM in assay [7]; 6.69 µM in assay [8]. In addition, the TGI in assay [9] turned out to be 1.55 µM; in assay [10] it was 0.234 µM.
